Source: US6608032B1, “Medicinal compositions” (Takara Shuzo Co., Ltd., priority 1999, dated 2003)

Assays:
heme oxygenase 1 protein = test: Heme oxygenase 1 induction in RAW264.7 cells (Western blot); type: cell-based; set-up: key: − represents no band observed; increase in the intensity of the band is represented as follows:+−<+<++; increase in the intensity of the band is represented as follows:+−<+<++; increase in the intensity of the band is represented as follows:+−<+<++; conditions: 15 hours
Procedure: RAW264.7 cells (ATCC TIB 71) were suspended in Dulbecco's modified Eagle's medium (Bio Whittaker, 12-604F) containing 10% fetal calf serum (Gibco) at a concentration of 3×10^5 cells/ml. 5 ml of the suspension was added to each well of a 6-well microtiter plate and the plate was incubated at 37° C. overnight in the presence of 5% CO2. 50 μl of a solution containing agarobiose or agarohexaose in Referential Example 1 at a concentration of 20 mM, 10 mM or 5 mM in water was added to the well. The plate was incubated for 15 hours. A positive control for heme oxygenase 1 induction in which 5 μl of 3 mM solution of 15-deoxy-Δ12,14 prostaglandin J2 (Cayman Chemical, 18570) in dimethyl sulfoxide was added, and a negative control in which water was added were provided. The cells were recovered by detaching the cells from the plate using a scraper and suspended in 0.1 M tris-HCl buffer (pH 7.5) containing 0.05 mM pepstatin A (Sigma, P5318), 0.2 mM leupeptin (Sigma, L2884), 1 mM phenylmethylsulfonyl fluoride (Nacalai Tesque, 273-27), 10 mm ethylenediaminetetraacetic acid disodium salt and 0.1% Triton X-100. A supernatant obtained by centrifuging the suspension after freezing and thawing was used as a protein fraction. The content of protein in the protein fraction was determined using Micro BCA Protein Assay Reagent (a product of Pierce sold by Takara Shuzo, P7411). A sample from the protein fraction prepared as described above was mixed with an equal volume of 0.125 M tris-hydrochloride buffer (pH 6.8) containing 4% sodium lauryl sulfate (SDS), 2% 2-mercaptoethanol, 0.001% Bromophenol Blue and 20% glycerol. After treatment at 100° C. for 5 minutes, a portion corresponding to 10 μg of protein was loaded on 12.5% SDS-polyacrylamide gel and electrophoresed at a constant current of 20 mA. After electrophoresis, the gel was transferred to a PVDF membrane (Millipore, IPVH000 10) at a constant voltage of 15 V for 25 minutes using a blotting buffer (containing 48 mM tris, 39 mM glycine, 20% methanol and 0.0375% SDS) and Trans-Blot SD Cell Semi-Dry blotting apparatus (Bio-Rad) according to the attached protocol. After transferring, the PVDF membrane was blocked in a solution of Block Ace (Dainippon Pharmaceutical, UK-B25) at 4° C. overnight. After blocking, the membrane washed three times in phosphate buffered saline containing 0.1% Tween 20 for 15 minutes with gentle shaking. The membrane was reacted in phosphate buffered saline containing 10% Block Ace, 0.1% Tween 20 and 200 ng/ml of anti-heme oxygenase 1 antibody (N-19; Santa Cruz, sc-7696) at room temperature for 1 hour with gentle shaking, and then washed three times in phosphate buffered saline containing 0.1% Tween 20 for 15 minutes with gentle shaking. The membrane was reacted in phosphate buffered saline containing 10% Block Ace, 0.1% Tween 20 and 0.1% peroxidase-labeled rabbit anti-goat IgG (H+L) antibody (Zymed, 61-1620) at room temperature for 1 hour with gentle shaking, and then washed five times in phosphate buffered saline containing 0.1% Tween 20 for 15 minutes with gentle shaking. The PVDF membrane was stained using Western Blot Chemiluminescence Reagent Plus (a product of NEN Life Science Products sold by Daiichi Pure Chemicals, NEL103) according to the attached protocol and exposed to an X-ray film (Kodak, CAT165 1454). After exposure, the film was developed using FPM800 (Fuji Film).
The intensity of the band depended on the concentration of agarobiose or agarohexaose. In the table, the intensity of the band for heme oxygenase 1 protein is expressed by the mark+. Specifically, − represents no band observed, and increase in the intensity of the band is represented as follows:+−<+<++.

α-glucosidase [1] = biological target: α-glucosidase (Rattus norvegicus, UniProt P23739); test: α-glucosidase inhibition, crude enzyme preparation from rat small intestine mucous membrane; type: biochemical
α-glucosidase (Rattus norvegicus, UniProt P23739), sequence (P23739 whole entry): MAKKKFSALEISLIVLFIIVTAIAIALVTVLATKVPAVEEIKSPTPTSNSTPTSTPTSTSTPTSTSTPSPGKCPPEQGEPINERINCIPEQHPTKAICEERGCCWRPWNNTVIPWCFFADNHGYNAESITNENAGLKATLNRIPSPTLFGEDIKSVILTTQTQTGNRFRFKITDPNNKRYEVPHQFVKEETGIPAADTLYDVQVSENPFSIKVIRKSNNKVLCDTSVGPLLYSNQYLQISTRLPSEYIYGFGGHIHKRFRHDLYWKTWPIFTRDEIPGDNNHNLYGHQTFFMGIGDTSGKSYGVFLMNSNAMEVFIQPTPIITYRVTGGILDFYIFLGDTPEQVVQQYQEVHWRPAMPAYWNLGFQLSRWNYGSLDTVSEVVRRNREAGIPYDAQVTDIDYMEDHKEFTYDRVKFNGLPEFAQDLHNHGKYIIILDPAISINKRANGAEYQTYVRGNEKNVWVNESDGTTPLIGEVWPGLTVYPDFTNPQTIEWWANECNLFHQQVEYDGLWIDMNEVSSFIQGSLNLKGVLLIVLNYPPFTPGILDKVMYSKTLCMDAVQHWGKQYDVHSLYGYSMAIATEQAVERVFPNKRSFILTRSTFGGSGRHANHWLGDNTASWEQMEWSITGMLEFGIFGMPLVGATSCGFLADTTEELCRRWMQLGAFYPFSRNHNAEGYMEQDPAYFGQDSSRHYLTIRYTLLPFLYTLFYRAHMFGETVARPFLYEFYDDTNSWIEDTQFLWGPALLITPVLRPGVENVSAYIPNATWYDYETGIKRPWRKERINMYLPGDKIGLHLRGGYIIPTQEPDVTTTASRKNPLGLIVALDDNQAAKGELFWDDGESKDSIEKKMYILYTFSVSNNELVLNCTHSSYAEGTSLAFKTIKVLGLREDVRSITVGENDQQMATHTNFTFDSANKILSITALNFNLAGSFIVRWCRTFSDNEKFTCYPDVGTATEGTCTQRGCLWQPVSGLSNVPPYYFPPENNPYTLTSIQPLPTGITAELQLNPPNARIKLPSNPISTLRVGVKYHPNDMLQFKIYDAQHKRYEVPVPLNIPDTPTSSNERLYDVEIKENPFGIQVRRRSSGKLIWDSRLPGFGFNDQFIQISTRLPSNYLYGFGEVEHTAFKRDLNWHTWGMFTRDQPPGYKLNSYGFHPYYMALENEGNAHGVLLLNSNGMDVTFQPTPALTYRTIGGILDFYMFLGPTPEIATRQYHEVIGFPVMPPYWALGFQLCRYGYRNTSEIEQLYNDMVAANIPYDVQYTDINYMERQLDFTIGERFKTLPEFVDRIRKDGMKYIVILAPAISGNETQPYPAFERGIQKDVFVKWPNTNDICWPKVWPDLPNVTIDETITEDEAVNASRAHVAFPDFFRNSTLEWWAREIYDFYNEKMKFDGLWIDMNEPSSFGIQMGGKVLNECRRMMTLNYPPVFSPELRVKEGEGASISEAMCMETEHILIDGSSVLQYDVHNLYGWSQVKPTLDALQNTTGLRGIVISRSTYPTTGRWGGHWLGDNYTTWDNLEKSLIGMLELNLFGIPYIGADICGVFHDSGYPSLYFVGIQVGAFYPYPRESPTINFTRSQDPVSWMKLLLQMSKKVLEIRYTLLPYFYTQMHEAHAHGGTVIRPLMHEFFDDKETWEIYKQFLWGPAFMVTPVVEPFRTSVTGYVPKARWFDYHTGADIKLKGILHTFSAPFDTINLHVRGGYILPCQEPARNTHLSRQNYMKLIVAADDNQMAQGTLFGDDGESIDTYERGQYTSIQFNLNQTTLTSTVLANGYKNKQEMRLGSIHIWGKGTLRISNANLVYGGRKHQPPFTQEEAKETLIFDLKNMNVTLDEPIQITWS
Procedure: (§1) (2) A crude enzyme preparation obtained from rat small intestine mucous membrane prepared according to the method as described in Arne Dahlqvist, Anal. Biochem., 7:18-25 (1964) was used to measure the activity of inhibiting α-glucosidase of agarotetraose or agarohexaose prepared in Referential Example 1 in vitro as follows.
(§2) For the enzymatic reaction, 80 μl of a solution of sucrose, maltose, treharose or soluble starch as a substrate in 10 mM phosphate buffer (pH 7.0) at a final concentration of 100 mM (0.5% in case of soluble starch) was added to 10 μl of a test sample solution appropriately diluted with the same buffer. 10 μl of the crude enzyme solution prepared from rat small intestine was added thereto. The mixture was reacted at 37° C. for 20 minutes. The enzymatic activity was determined as follows as the amount of glucose generated in the reaction mixture: 3 ml of a reagent for glucose measurement (Wako Pure Chemical Industries) was added to the reaction mixture, reaction was carried out at 37° C. for 5 minutes, and then the absorbance at 505 nm was measured. The inhibitory activity on the digestion of each substrate was expressed as a remaining activity (%) against the control, which was calculated based on the activity measured as described above for each of four different concentrations. The remaining activities (%) on the respective substrates in the presence of agarotetraose are shown in Table 2, whereas the remaining activities (%) on the respective substrates in the presence of agarohexaose are shown in Table 3.

α-glucosidase [2] = test: as above; type: biochemical
Procedure: as §1, §2

[3] = substrate Soluble starch, 0.2 mM
[4] = substrate Soluble starch, 0.5 mM
[5] = substrate Soluble starch, 1.0 mM
[6] = substrate Soluble starch, 2.0 mM

Row | SMILES | Intensity of band for heme oxygenase 1 protein (heme oxygenase 1 protein; final concentration of 50 μM) | Intensity of band for heme oxygenase 1 protein (heme oxygenase 1 protein; final concentration of 100 μM) | Intensity of band for heme oxygenase 1 protein (heme oxygenase 1 protein; final concentration of 200 μM) | remaining activity at 200 µM (α-glucosidase [1]) | remaining activity at 500 µM (α-glucosidase [1]) | remaining activity at 1000 µM (α-glucosidase [1]) | remaining activity at 2000 µM (α-glucosidase [1]) | Remaining activity (%) (α-glucosidase [2]; substrate Maltose, 0.2 mM) | Remaining activity (%) (α-glucosidase [2]; substrate Maltose, 0.5 mM) | Remaining activity (%) (α-glucosidase [2]; substrate Maltose, 1.0 mM) | Remaining activity (%) (α-glucosidase [2]; substrate Maltose, 2.0 mM) | Remaining activity (%) (α-glucosidase [2]; [3]) | Remaining activity (%) (α-glucosidase [2]; [4]) | Remaining activity (%) (α-glucosidase [2]; [5]) | Remaining activity (%) (α-glucosidase [2]; [6]) | Remaining activity (%) (α-glucosidase [2]; substrate Trehalose, 0.2 mM) | Remaining activity (%) (α-glucosidase [2]; substrate Trehalose, 0.5 mM) | Remaining activity (%) (α-glucosidase [2]; substrate Trehalose, 1.0 mM) | Remaining activity (%) (α-glucosidase [2]; substrate Trehalose, 2.0 mM)
1 | OC[C@H]1O[C@@H](O[C@H]2[C@H]3OC[C@@H]2OC(O)[C@H]3O)[C@H](O)[C@@H](O)[C@H]1O (mixture of isomers) [Agarobiose, agarobiose] | +− | + | ++ |  |  |  |  |  |  |  |  |  |  |  |  |  |  |  | 
2 | OCC1OC(OC2C3COC2C(O)C(OC2C(O)C(CO)OC(OC4C5COC4C(O)C(OC4C(O)C(CO)OC(OC6C7COC6C(O)C(O)O7)C4O)O5)C2O)O3)C(O)C(O)C1O (centres unmarked) [Agarohexaose, agarohexaose] | +− | + | ++ | 92% | 85% | 81% | 70% | 98% | 100% | 91% | 92% | 100% | 97% | 96% | 97% | 100% | 100% | 100% | 93%
3 | OCC1OC(OC2C3COC2C(O)C(OC2C(O)C(CO)OC(OC4C5COC4C(O)C(O)O5)C2O)O3)C(O)C(O)C1O (centres unmarked) [Agarotetraose, agarotetraose] |  |  |  | 92% | 85% | 83% | 72% | 97% | 95% | 100% | 98% | 100% | 96% | 97% | 91% | 100% | 100% | 100% | 93%
